The values that follow come from ChEMBL document CHEMBL3243992, “Synthesis and carcinogenic activity of 5-fluoro-7-(oxygenated methyl)-12-methylvenz[a]anthracenes” (J Med Chem, 1978).

Series [1] concerns Rattus norvegicus. The series can be described thus: Carcinogenic activity in Sprague-Dawley rat assessed as tumor formation at 0.1 umol, sc three times a week for 30 days observed up to 270 days. It is filed as ADME, organism-based. The note with it: in vivo.
For series [2], the system named is Rattus norvegicus. Nature of the series: Carcinogenic activity in Sprague-Dawley rat assessed as tumor induction time at 0.1 umol, sc three times a week for 30 days. It is filed as ADME, organism-based. The conditions noted are these: in vivo, 720 h.

Molecules are shown by their SMILES.

As to `Cc1c2ccccc2c(CO)c2cc(F)c3ccccc3c12`, the Activity result in series [1] was “Non-toxic”.

For `CC(=O)OCc1c2ccccc2c(C)c2c1cc(F)c1ccccc12`, the Time in series [2] amounted to 205.7 days.

On to `Cc1c2ccccc2c(C)c2c1cc(F)c1ccccc12`, for which the Time in series [2] amounted to 231 days.
